Values quoted from earlier work as cited in US20090005321A1, “Phenylazetidinone Derivatives” (Microbia, Inc., priority 2005, published 2009).

Assays:
[1] = in vivo
[2] = in humans

absorption of taurocholic acid [1]: does not inhibit
fat-soluble vitamin absorption [2]: does not appear to affect
Structure (SMILES): O=C1[C@H](CC[C@H](O)c2ccc(F)cc2)[C@@H](c2ccc(O)cc2)N1c1ccc(F)cc1 [ezetimibe, (3R,4S)-1-(4-fluorophenyl)-3-[(3S)-3-(4-fluorophenyl)-3-hydroxypropyl]-4-(4-hydroxyphenyl)azetidin-2-one]
